IC50 data for twelve molecules are collected here from patent US20170334899A1, “AMINO-SUBSTITUTED ISOTHIAZOLES” (Bayer Pharma Aktiengesellschaft, priority 2014, published 2017).

Common to all, as to format: cell-based
Assay [1] deals with human cervical tumor cell line HeLa (ATCC CCL-2). As to the kind of experiment: SAC-Formation - Paclitaxel-Induced Assay. Particulars: Homo sapiens, HeLa, 24 h, HeLa cells, paclitaxel 0.05 μM, test range 0.005 μM-20 μM, read-out: IC50 [mol/l] SAC-Formation - Paclitaxel-Induced Assay. The source says: (§1) The spindle assembly checkpoint assures the proper segregation of chromosomes during mitosis. Upon entry into mitosis, chromosomes begin to condensate which is accompanied by the phosphorylation of histone H3 on serine 10. Dephosphorylation of histone H3 on serine 10 begins in anaphase and ends at early telophase. Accordingly, phosphorylation of histone H3 on serine 10 can be utilized as a marker of cells in mitosis. Nocodazole is a microtubule destabilizing substance. Paclitaxel is a microtubule stabilizing compound. Thus, nocodazole as well as paclitaxel interfere with microtubule dynamics and mobilize the spindle assembly checkpoint. […] The mitotic breakthrough can be detected by the decrease of cells with phosphorylation of histone H3 on serine 10. This decline is used as a marker to determine the capability of compounds of the present invention to induce a mitotic breakthrough. The typical morphological alteration of nuclei with a prematurely completed mitosis after SAC-inhibition can be monitored via image analysis routines supporting those findings.
(§2) The nocodazole and paclitaxel variations were used to focus on compounds that are capable of inhibiting a SAC induced by both microtubule destabilization as well as microtubule stabilization. When SAC inducing agents and compounds are given simultaneously inhibitors that effectively block the SAC during formation or abrogation are identified. When cells are incubated with a SAC inducing agent and the SAC interfering compound is given after a defined time, inhibitors are identified that effectively block SAC abrogation.
Cultivated cells of the human cervical tumor cell line HeLa (ATCC CCL-2) were plated at a density of 1000 cells/well in a 1536-well microtiter plate in 2 μl PAA
(§3) Ham's F12 Medium supplemented with 1% (v/v) glutamine, 1% (v/v) penicillin, 1% (v/v) streptomycin and 10% (v/v) fetal calf serum. After incubation overnight at 37° C., 10 μl/well paclitaxel at a final concentration of 0.05 μM were added to cells. Test compounds solubilized in dimethyl sulfoxide (DMSO) were added at various concentrations (0 μM, as well as in the range of 0.005 μM -20 μM; the final concentration of the solvent DMSO was 0.5% (v/v)). Cells were incubated for 24 h at 37° C. in the presence of test compounds in combination with paclitaxel. Thereafter, cells were fixed in 4% (v/v) paraformaldehyde in phosphate buffered saline (PBS) at 4° C. overnight then permeabilized in 0.1% (v/v) Triton X™ 100 in PBS at room temperature for 20 min and blocked in 0.5% (v/v) bovine serum albumin (BSA) in PBS at room temperature for 15 min. After washing with PBS, 5 μl/well antibody solution (anti-phospho-histone H3 clone 3H10, FITC; Millipore, Cat#16-222; 1:1000 dilution) was added to cells, which were incubated for 2 h at room temperature. Afterwards, cells were washed with PBS and 5 μl/well solution of HOECHST 33342 dye (5 μg/ml) was added to cells and cells were incubated 15 min at room temperature in the dark. Cells were washed twice with PBS then covered with PBS and stored at 4° C. until analysis. Images were acquired with a PERKIN ELMER OPERA™ High-Content Analysis reader. Images were analyzed with image analysis software MetaXpress™ from Molecular devices utilizing the Mitotic Index application module. In this assay both labels HOECHST 33342 and phosphorylated Histone H3 on serine 10 were measured. HOECHST 33342 labels the DNA and is used to count the cell number. The staining of phosphorylated Histone H3 on serine 10 determines the number of mitotic cells. […] Otherwise cells were arrested at G2/M phase of the cell cycle progression. The raw assay data were further analyzed by four-parametric hill equation using Genedata's Assay Analyzer and Condoseo software.

Assay [2] has the same test system. Briefly: SAC-Formation - Nocodazole-Induced Assay. Particulars: Homo sapiens, HeLa, 24 h, HeLa cells, nocodazole 0.1 μg/ml together with test compound, decrease of mitotic cells (phospho-histone H3 Ser10).
Description: as §1, §2
as §3, with “Cultivated cells of the human cervical tumor cell line HeLa (ATCC CCL-2) were plated at a density of 1000 cells/well in a 1536-well microtiter plate in 2 μl PAA Ham's” for “Ham's”, “nocodazole” for “paclitaxel”, “0.1 μg/ml” for “0.05 μM”, “μM-20” for “μM -20”, “nocodazole.” for “paclitaxel.”

The next assay deals with HeLa. Briefly: Proliferation assay (crystal violet), HeLa. Particulars: Homo sapiens, HeLa, 96 h, HeLa cells; 4 days incubation; crystal violet staining; read-out: IC50 inhibition of proliferation, HeLa. On the procedure: Cultivated tumor cells (cells were ordered from ATCC, except HeLa-MaTu and HeLa-MaTu-ADR, which were ordered from EPO-GmbH, Berlin) were plated at a density of 1000 to 5000 cells/well, depending on the growth rate of the respective cell line, in a 96-well multititer plate in 200 μL of their respective growth medium supplemented 10% fetal calf serum. After 24 hours, the cells of one plate (zero-point plate) were stained with crystal violet (see below), while the medium of the other plates was replaced by fresh culture medium (200 μl), to which the test substances were added in various concentrations (0 μM, as well as in the range of 0.001-10 μM; the final concentration of the solvent dimethyl sulfoxide was 0.5%). The cells were incubated for 4 days in the presence of test substances. Cell proliferation was determined by staining the cells with crystal violet: the cells were fixed by adding 20 μl/measuring point of an 11% glutaric aldehyde solution for 15 minutes at room temperature. After three washing cycles of the fixed cells with water, the plates were dried at room temperature. The cells were stained by adding 100 μl/measuring point of a 0.1% crystal violet solution (pH 3.0). After three washing cycles of the stained cells with water, the plates were dried at room temperature. The dye was dissolved by adding 100 μl/measuring point of a 10% acetic acid solution. Absorbtion was determined by photometry at a wavelength of 595 nm. The change of cell number, in percent, was calculated by normalization of the measured values to the aborbtion values of the zero-point plate (=0%) and the absorbtion of the untreated (0 μm) cells (=100%). The IC50 values were determined by means of a 4 parameter fit.

Take `Cc1nsc(Nc2cnc3ccccc3n2)c1C(=O)Nc1cccc(C(=O)NCCCN2CCCC2)c1` [Example 81, 3-Methyl-N-(3-{[3-(pyrrolidin-1-yl)propyl]carbamoyl}-phenyl)-5-(quinoxalin-2-ylamino)-1,2-thiazole-4-carboxamide]: the results for the IC50 (in assay [1]; in assay [2]; in the assay with HeLa) were 11 µM, 10 µM and 10 µM, respectively.

On to `Cc1nsc(Nc2cnc3ccccc3n2)c1C(=O)Nc1cccc(C(=O)NCCN2CCOCC2)c1` [Example 71, 3-Methyl-N-(3-{[2-(morpholin-4-yl)ethyl]carbamoyl}-phenyl)-5-(quinoxalin-2-ylamino)-1,2-thiazole-4-carboxamide], for which the IC50 in assay [1] turned out to be 20 µM; in assay [2], 1.4 µM; in the assay with HeLa, 10 µM.

Turning to `CC(=O)N[C@H]1CCN(C(=O)c2cccc(NC(=O)c3c(C)nsc3Nc3cnc4ccccc4n3)c2)C1` [Example 86, N-(3-{[(3S)-3-(acetylamino)pyrrolidin-1-yl]carbonyl}-phenyl)-3-methyl-5-(quinoxalin-2-ylamino)-1,2-thiazole-4-carboxamide], the figures for the IC50 (in assay [1]; in assay [2]; with HeLa) were 13 µM, 3.2 µM and 10 µM, respectively.

Consider `COCCN1CCN(C(=O)c2cccc(NC(=O)c3c(C)nsc3Nc3cnc4ccccc4n3)c2)CC1` [Example 91, N-(3-{[4-(2-Methoxyethyl)piperazin-1-yl]carbonyl}phenyl)-3-methyl-5-(quinoxalin-2-ylamino)-1,2-thiazole-4-carboxamide], for which the IC50 worked out at 0.23 µM in assay [1], 0.042 µM in assay [2] and 10 µM in the assay with HeLa.

For the molecule `Cc1nsc(Nc2cnc3ccccc3n2)c1C(=O)Nc1cccc(N)c1` [Example 450, N-(3-Aminophenyl)-3-methyl-5-(quinoxalin-2-ylamino)-1,2-thiazole-4-carboxamide], the IC50 in assay [1] was 20 µM; in assay [2], 12 µM; in the assay on HeLa, above 10 µM.

For `Cc1nsc(Nc2cnc3ccccc3n2)c1C(=O)Nc1cccc(C(=O)N2CCCN(C)CC2)c1` [Example 83, 3-Methyl-N-{3-[(4-methyl-1,4-diazepan-1-yl)carbonyl]-phenyl}-5-(quinoxalin-2-ylamino)-1,2-thiazole-4-carboxamide], the IC50 in assay [1] is 0.94 µM; in assay [2], 0.05 µM; with HeLa, 10 µM.

For the molecule `Cc1nsc(Nc2cnc3ccccc3n2)c1C(=O)Nc1cccc(C(=O)N(C)CCN(C)C)c1` [Example 58, N-(3-{[2-(Dimethylamino)ethyl](methyl)carbamoyl}phenyl)-3-methyl-5-(quinoxalin-2-ylamino)-1,2-thiazole-4-carboxamide], the IC50 was 7.3 µM in assay [1], 3 µM in assay [2] and 10 µM in the assay on HeLa.

With `Cc1nsc(Nc2cnc3ccccc3n2)c1C(=O)Nc1cccc(C(=O)NCCN(C)C)c1` [Example 75, N-(3-{[2-(dimethylamino)ethyl]carbamoyl}phenyl)-3-methyl-5-(quinoxalin-2-ylamino)-1,2-thiazole-4-carboxamide], the results for the IC50 (in assay [1]; in assay [2]; in the assay on HeLa) were 10 µM, 0.015 µM and 10 µM, respectively.

`Cc1nsc(Nc2cnc3ccccc3n2)c1C(=O)Nc1cccc(C(=O)N2CCN(C(=O)c3ccccc3)CC2)c1` [Example 88, N-{3-[(4-Benzoylpiperazin-1-yl)carbonyl]phenyl}-3-methyl-5-(quinoxalin-2-ylamino)-1,2-thiazole-4-carboxamide]: the IC50 in assay [1] came to 0.48 µM; in assay [2], 0.031 µM; in the assay on HeLa, 10 µM.

For the molecule `CC(=O)NCCNC(=O)c1cccc(NC(=O)c2c(C)nsc2Nc2cnc3ccccc3n2)c1` [Example 66, N-(3-{[2-(Acetylamino)ethyl]carbamoyl}phenyl)-3-methyl-5-(quinoxalin-2-ylamino)-1,2-thiazole-4-carboxamide], the IC50 in assay [1] turned out to be 20 µM; in assay [2], 0.72 µM; with HeLa, 10 µM.

On to `Cc1nsc(Nc2cnc3ccccc3n2)c1C(=O)Nc1cccc(C(=O)N2CCN(CCN(C)C)CC2)c1` [Example 90, N-[3-({4-[2-(Dimethylamino)ethyl]piperazin-1-yl}carbonyl)-phenyl]-3-methyl-5-(quinoxalin-2-ylamino)-1,2-thiazole-4-carboxamide], for which the figures for the IC50 (in assay [1]; in assay [2]; in the assay with HeLa) were 17 µM, 0.79 µM and 10 µM, respectively.

For the molecule `CC(=O)N1CCN(C(=O)c2cccc(NC(=O)c3c(C)nsc3Nc3cnc4ccccc4n3)c2)CC1` [Example 70, N-{3-[(4-Acetylpiperazin-1-yl)carbonyl]phenyl}-3-methyl-5-(quinoxalin-2-ylamino)-1,2-thiazole-4-carboxamide], the IC50 in assay [1] was found to be 10 µM; in assay [2], 2.2 µM; in the assay on HeLa, 10 µM.
